Data taken from patent US7557144B1, “Modulation of protein expression using carbocyclic aryl alkenoic acid derivatives” (The Johns Hopkins University, priority 2000, dated 2009).

Experiments:
Type in all cases: cell-based, human
ΔF508-CFTR [1] = assay: CFTR immunoprecipitation and phosphorylation in IB3-1 cells (bands B and C)
Experimental: CFTR was immunoprecipitated and phosphorylated as described in the Methods. […] Band B CFTR is barely visible consistent with low level ΔF508 expression. The positive control condition, untreated cells grown at 28° C., is in lane 7. Band C has been induced and Band B is relatively depleted consistent with an effect of low temperature on protein trafficking. […] This is consistent with an effect on protein production and on protein trafficking.
Shown in FIGS. 9A and 9B are independent experiments performed as described above. Now the control cells are analyzed in lane 5. Lanes 1-4 show decreasing concentrations of the test compound.
CFTR was detected by immunoprecipitation and phosphorylation. Control cells at 0 and 32 hrs have barely visible CFTR bands B and C. Exposure to low temperature induces band C. 1 mM 4-phenyl-Δ3-transbutenoic acid begins to induce band C and 4 hr and appears maximal by 16 hrs.

ΔF508-CFTR [2] = assay: CFTR bands B and C in primary cystic fibrosis bronchial epithelial cells; conditions: primary CF bronchial epithelial cells, 48 hr
Experimental: Shown in FIGS. 10A and 10B are results of CF bronchial epithelial cells were harvested from the discarded lungs of a CF patient who underwent therapeutic lung transplant. The genotype is homozygous ΔF508. The methods are as described above. Control cells grown in standard conditions for 0 or 48 hrs are in lanes 6 and 7. Bands B and C are barely detectable. […] The test compound in doses from 1 μM to 1 mM for 48 hr is shown in decreasing order in lanes 2-5.

Hsc70 [3] = assay: Hsc70 immunoblot in primary CF bronchial epithelial cells
Experimental: Shown in FIG. 11 is an experiment in which cells were exposed to control or test conditions or study drug for 48 hrs and then analyzed by immunoblotting for Hsc70, a 70 kD heat shock chaperone protein. […] Hsc70 is not as dramatically down regulated by growth at 27° C.
Shown in FIG. 12 is an experiment performed along lines as shown in FIG. 10A in the same primary cell line. Hsc70 under control conditions is strongly visible in lane 6. Study drug at 1 μM or higher, and low temperature, are associated with more than 50% reduction in Hsc70.

Hsc70 [4] = assay: Hsc70 immunoblot of IB3-1 whole cell lysates; conditions: IB3-1 cells, 37° C., 2 days; butyrate 1 mM, glycerol 1 M, phenylacetate 1 mM, G418 0.2 mg/ml
Experimental: (§1) 3. Immunoblot analysis. Whole cell lysates were prepared by solubilization with 2% SDS at 95° C. Protein concentration in the lysates was determined using the Bio-Rad DC assay reagents with bovine plasma g-globulin as a standard (Bio-Rad Laboratories, Hercules, Calif.). Equal amounts of protein was resolved on 5, 7, 8, or 9% SDS-polyacrylamide gels. Proteins were transferred to nitrocellulose, and immunodetection was performed as previously described (25). Nonspecific binding was blocked by incubation of the nitrocellulose with 2% gelatin or 10% nonfat day milk. Primary antisera and secondary antibodies were applied in buffer containing 0.4% BSA overnight at 4° C. and for 1 h at room temperature, respectively. Detection of immunoreactivity was performed with the enhanced chemiluminescence reagent (ECL, Amer-sham) and fluorography. Recombinant bovine Hsc70 ([…]) was purchased from Stressgen Biotechnologies for use in constructing a standard curve of Hsc70 immunoreactivity. Immunoblots containing the bovine Hsc70 were probed with the Hsc70-specific polyclonal antiserum.

Hsp90 = Hsp90 immunoblot of IB3-1 lysates; conditions: IB3-1 cells, 37° C., 2 days; butyrate 1 mM, glycerol 1 M, phenylacetate 1 mM, G418 0.2 mg/ml
Experimental: as §1
(§2) Whether 4-PBA would regulate expression of a number of other molecular chaperones in IB3-1 cells (FIG. 2) was assessed next. […] Hsp90 is required for correct folding and function of a number of cellular proteins (16). […] Hsp70 (Hsp72) expression is induced by heat shock and the presence of denatured proteins within the eukaryotic cell (16). In Escherichia coli, the Hsp70 homologue DnaK and the Hsp40 homologue DnaJ act to promote protein folding (16). Hdj2 is the member of the Hsp40 family that specifically interacts with and regulates the ATPase activity of Hsc70. Hdj2 also interacts with CFTR during CFTR translation (26).
(§3) FIGS. 2A-2E are more specifically explained as follows. […]
(§4) FIGS. 5A-C are explained in more detail as follows. […] Cellular homogenates were prepared in 2% SDS as described in METHODS, and 5 μg of total cellular protein were analyzed by immunoblot for Hsc70 using rabbit polyclonal antiserum, Hsp90, Hsp70, Hsp40 as described above under General Comments. […]

Hsp70 = Hsp70 immunoblot of IB3-1 lysates; conditions: IB3-1 cells, 37° C., 2 days; butyrate 1 mM, glycerol 1 M, phenylacetate 1 mM, G418 0.2 mg/ml
Experimental: as §1, §2
FIGS. 2A-2E are more specifically explained as follows. […] IB3-1 cells were treated as described for FIG. 1. Immunoblotting with 5 μg of IB3-1 SDS lysate protein was performed as described in the foregoing General Comments.
FIGS. 5A-C are explained in more detail as follows. […] A: IB3-1 cells were incubated at 37° C. for 2 days under indicated conditions. Cellular homogenates were prepared in 2% SDS as described in METHODS, and 5 μg of total cellular protein were analyzed by immunoblot for Hsc70 using rabbit polyclonal antiserum, Hsp90, Hsp70, Hsp40 as described above under General Comments. Con, control. B and C: densitometric analysis of Hsc70 expression (B) and Hsp90, Hsp70, and Hsp40 expression (C) was performed as described for FIG. 1. B: means 6 SE of density in 4 independent experiments.

Hsp40 = Hsp40 immunoblot of IB3-1 lysates; conditions: IB3-1 cells, 37° C., 2 days; butyrate 1 mM, glycerol 1 M, phenylacetate 1 mM, G418 0.2 mg/ml
Experimental: as §1, §2, §3, §4

ΔF508-CFTR/Hsc70 complex = assay: Immunoprecipitation of Hsc70 and coimmunoprecipitation of CFTR from treated IB3-1 cells; conditions: 2 days, butyrate 1 mM, glycerol 1 M, phenylacetate 1 mM, G418 0.2 mg/ml
Hsc70 mRNA = assay: RNase protection assay of Hsc70 mRNA in IB3-1 cells; conditions: 2 days, 1 mM butyrate, 1 M glycerol
Excerpt: 4. RNase protection. An Hsc70-specific probe for RNase protec-tion was constructed by isolation a 500-bp EcoR I fragment from American Type Culture Collection (ATCC) plasmid 77659 (ATCC, Manassas, Va.) and ligating this fragment into the EcoR I site of pSK(2) (Bluescript, Stratagene, La Jolla, Calif.). The resulting plasmid was sequenced in the Genetics Core Facility at the Johns Hopkins Hospital and found to be identical to sequences in exons 8 and 9 of the human Hsc70 sequence, with sequencing using the T3 primer and T7 primer leading to sense and antisense sequence, respectively. Hybridization probes were synthesized using a Maxiscript T7 kit (Ambion, Austin, Tex.) and [α^32 P]UTP (Amersham or DuPont NEN, Boston, Mass.) according to the Maxiscript protocol. Templates for internal control hybridizations, pTRI-18S and pTRI-cyclophilin A, were purchased from Ambion, and probes were similarly synthesized using the Maxiscript T7 kit. Probes were isolated by acid phenol-chloroform (Ambion) extraction, separated from unincorporated nucleotide by gel filtration (Sephadex G25 RNAspin column, Boehringer-Mannheim), and ethanol-acetate precipitated before resuspension in hybridization buffer. The concentration of radioactivity in the synthesized probes was determined by liquid scintillation.
RNase protection experiments were performed using the Direct Protect RNase protection assay kit (Ambion) according to the manufacturer's protocol. IB3-1 cell lysates were pre-pared in Direct Protect lysis buffer according to the manufacturer's protocol after incubation under the appropriate conditions for 48 h. Probe (50-70 and 5-10 thousands of counts/min for Hsc70 and control, respectively) and cellular RNA were hybridized overnight at 37° C. and digested with RNase cocktail. Protected fragments were resolved by electrophoresis on 5% acrylamide-8 M urea gels and detected by fluorography. Hsc70 mRNA concentration is expressed relative to control (18S or cyclophilin A) hybridization by densitometry (see Densitometric analysis). Results for hybridization of Hsc70 mRNA relative to the two control species were similar and were therefore grouped for data analysis.
FIGS. 3A-B are explained in more detailed as follows. Dose-dependent downregulation of Hsc70 mRNA expression by 4-PBA. A: IB3-1 cells were treated as for FIGS. 1 and 2. Hsc70 mRNA and 18S rRNA (as an internal reference) were measured by Direct Protect RNase protection as described under General Comments. […] P values (shown above respective error bars) were determined by 1-way ANOVA in comparison with control.
FIG. 6 is explained in more detail as follows. […] P values (shown above respective error bars) were determined by 1-way ANOVA in comparison with control.

[5] = IB3-1 cells, 1 μM to 100 μM, 48 hr (FIG. 8)

Structure (SMILES) | Hsc70 immunoreactivity (Hsc70 [4]) | Hsp90 immunoreactivity (Hsp90) | Hsp70 immunoreactivity (Hsp70) | Hsp40 immunoreactivity (Hsp40) | amount of immunoreactive CFTR coprecipitated with Hsc70 (ΔF508-CFTR/Hsc70 complex) | reduction in steady-state Hsc70 mRNA levels (Hsc70 mRNA) [%] | also measured
O=C(O)CC=Cc1ccccc1 [4-phenyl-Δ3-transbutenoic acid] |  |  |  |  |  |  | Band B and total CFTR (ΔF508-CFTR [1]; [5]): induction; induction of Band C CFTR (ΔF508-CFTR [1]; [5]): dose-dependent induction of Band C; time at which induction of band C begins (ΔF508-CFTR [1]; IB3-1 cells, 1 mM): 4 h; time by which induction of band C appears maximal (ΔF508-CFTR [1]; IB3-1 cells, 1 mM): ≤ 16 h; induction of CFTR bands B and C (ΔF508-CFTR [1]; IB3-1 cells, independent experiments (FIGS. 9A and 9B)): dose-dependent induction of bands B and C; effectiveness compared with 4-PBA (ΔF508-CFTR [1]; data of Examples 4-12): much more effective at lower concentrations; concentration giving maximum induction of bands B and C (ΔF508-CFTR [2]; doses 1 μM to 1 mM): 1 mM; induction of CFTR bands B and C (ΔF508-CFTR [2]; homozygous ΔF508, 1 μM): dramatic induction of bands B and C; reduction in Hsc70 (Hsc70 [3]; 1 μM or higher (FIG. 12)): more than 50%; reduction in Hsc70 (Hsc70 [3]; 100 μM and 1 mM, 48 hrs, semi-quantitative blot (FIG. 11)): ≥ 50%
O=C(O)Cc1ccccc1 [Phenylacetate, phenylacetic acid] | little effect | little effect | not affected | not affected | little effect |  | 
CCCC(=O)O [butyrate, butyric acid] |  |  |  |  |  | ~50 | 
OCC(O)CO [glycerol] | reduction | not change | not change | not change | decreases | ~50 | 
